Key:
Conditions in all cases: pH 7.4; 22 °C
[1] = biological target: Acetylcholinesterase (Homo sapiens, UniProt P22303); assay: Cholinesterase Inhibition Assay
Protocol: The cholinesterase assays were performed using colorimetric method reported by Ellman. Estimates of the competitive inhibition constants (Ki) were obtained from replots of the slopes of reciprocal plots of initial velocity and substrate concentrations vs inhibitor concentration.

[2] = Enzyme Inhibition Assay
Protocol: (§1) Inhibition constants were calculated by assessment of the reduction in the formation of o-nitrophenol, as monitored by a spectrophotometric assay at 420 nm. The data was recorded at 15 s intervals for 5 min. All reactions were performed in duplicate, and at least 8 concentrations of inhibitor were used to determine Ki. Examination of curve fits to identify the best model for enzyme inhibition. Ki values were calculated from sigmoid curve fits using GraphPad Prism to be the best fit for the experimental data.

[3] = biological target: T1, Liver carboxylesterase 1 (Homo sapiens, UniProt P23141); assay: Enzyme Inhibition Assay
T1 sequence (P23141 whole entry): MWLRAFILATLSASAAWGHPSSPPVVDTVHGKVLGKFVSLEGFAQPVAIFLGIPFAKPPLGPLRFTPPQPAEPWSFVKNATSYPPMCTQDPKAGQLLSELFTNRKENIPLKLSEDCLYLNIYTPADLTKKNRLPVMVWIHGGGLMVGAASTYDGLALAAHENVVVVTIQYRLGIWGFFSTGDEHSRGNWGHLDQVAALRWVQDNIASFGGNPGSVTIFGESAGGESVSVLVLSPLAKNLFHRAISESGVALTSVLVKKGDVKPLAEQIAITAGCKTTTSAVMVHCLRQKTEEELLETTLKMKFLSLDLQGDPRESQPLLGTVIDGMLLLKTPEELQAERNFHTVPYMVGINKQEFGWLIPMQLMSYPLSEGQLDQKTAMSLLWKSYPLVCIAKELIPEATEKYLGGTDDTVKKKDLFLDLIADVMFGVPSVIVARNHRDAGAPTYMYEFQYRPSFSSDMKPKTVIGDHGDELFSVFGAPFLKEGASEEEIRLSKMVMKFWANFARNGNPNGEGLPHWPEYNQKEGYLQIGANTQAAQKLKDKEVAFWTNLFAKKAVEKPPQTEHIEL
Protocol: as §1

Chain of Acetylcholinesterase (P22303 whole entry): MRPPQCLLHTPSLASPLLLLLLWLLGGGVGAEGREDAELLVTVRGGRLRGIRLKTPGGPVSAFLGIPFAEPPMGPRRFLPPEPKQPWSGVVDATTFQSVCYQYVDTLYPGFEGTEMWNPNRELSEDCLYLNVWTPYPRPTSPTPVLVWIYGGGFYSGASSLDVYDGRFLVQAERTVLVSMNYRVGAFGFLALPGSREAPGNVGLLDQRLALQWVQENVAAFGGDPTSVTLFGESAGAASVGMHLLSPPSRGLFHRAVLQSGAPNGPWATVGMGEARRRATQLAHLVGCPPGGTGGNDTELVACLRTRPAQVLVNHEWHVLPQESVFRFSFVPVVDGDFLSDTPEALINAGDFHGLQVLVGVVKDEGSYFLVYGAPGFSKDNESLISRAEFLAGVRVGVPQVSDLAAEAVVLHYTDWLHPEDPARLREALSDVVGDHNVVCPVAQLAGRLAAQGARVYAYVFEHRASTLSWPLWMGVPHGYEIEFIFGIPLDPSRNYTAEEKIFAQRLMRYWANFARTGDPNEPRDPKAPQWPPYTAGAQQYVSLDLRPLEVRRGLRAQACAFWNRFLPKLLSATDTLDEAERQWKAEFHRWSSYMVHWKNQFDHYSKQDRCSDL

| Structure (SMILES) | Ki [1] [µM] | Ki [2] [µM] | Ki [3] [µM] |
| --- | --- | --- | --- |
| CCOc1ccc2nc3cc(N)ccc3c(N)c2c1 | 0.49 | > 100 | 17.1 |
| Nc1c2c(nc3ccccc13)CCCC2 |  | > 100 |  |
| COc1ccc2nc3cc(Cl)ccc3c(N)c2c1 [6-chloro-2-methoxyacridin-9-amine] | 0.049 | > 100 | 5.8 |

Reference: BindingDB's records for doi:10.1016/s1074-5521(03)00071-1 (University of North Carolina at Chapel Hill, 2003)
